Results from patent publication US20200291096A1, “BICYCLIC PEPTIDE LIGAND STING CONJUGATES AND USES THEREOF” (priority 2017, published 2020).
Starred links: 1 amine or outer side, 2 acyl side, 3 side chain; linkers in the order of their positions; H or OH if unused. Positions of bridges follow the written chain, without caps; N, C: chain ends. Non-standard residues stand in square brackets, D forms with d. Residues, ends and D or L forms follow the SMILES beside them. 1Nal = N[C@@H](Cc1cccc2ccccc12)C(=O)O; TBMB = c1c(C[*:1])cc(C[*:3])cc1C[*:2]; Tle = CC(C)(C)[C@H](N)C(=O)O; βAla = NCCC(=O)O; Sar = CNCC(=O)O

How the values were obtained:
catalytic domain (MT1) = experiment: Binding to catalytic domain of MT1
MMP15 = MMP15 (Homo sapiens, UniProt P51511); experiment: Binding to related MMP family member MMP15
MMP15, sequence (P51511 132-669, species assumed): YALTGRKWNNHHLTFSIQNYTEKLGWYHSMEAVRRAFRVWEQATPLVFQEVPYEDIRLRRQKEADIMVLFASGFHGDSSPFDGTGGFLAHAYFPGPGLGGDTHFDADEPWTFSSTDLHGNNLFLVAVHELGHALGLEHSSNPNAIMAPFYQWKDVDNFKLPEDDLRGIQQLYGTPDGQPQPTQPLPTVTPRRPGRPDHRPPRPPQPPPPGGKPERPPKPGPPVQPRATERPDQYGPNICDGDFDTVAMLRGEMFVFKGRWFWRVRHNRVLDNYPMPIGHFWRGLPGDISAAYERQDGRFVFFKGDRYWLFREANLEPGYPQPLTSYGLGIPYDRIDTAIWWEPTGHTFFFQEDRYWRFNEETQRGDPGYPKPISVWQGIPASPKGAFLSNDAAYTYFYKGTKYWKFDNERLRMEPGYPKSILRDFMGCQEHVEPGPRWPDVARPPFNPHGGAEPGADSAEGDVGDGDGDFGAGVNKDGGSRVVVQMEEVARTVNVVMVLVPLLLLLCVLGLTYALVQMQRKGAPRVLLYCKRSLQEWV

MMP16 = MMP16 (Homo sapiens, UniProt P51512); experiment: Binding to related MMP family member MMP16
MMP16, sequence (P51512 120-607, species assumed): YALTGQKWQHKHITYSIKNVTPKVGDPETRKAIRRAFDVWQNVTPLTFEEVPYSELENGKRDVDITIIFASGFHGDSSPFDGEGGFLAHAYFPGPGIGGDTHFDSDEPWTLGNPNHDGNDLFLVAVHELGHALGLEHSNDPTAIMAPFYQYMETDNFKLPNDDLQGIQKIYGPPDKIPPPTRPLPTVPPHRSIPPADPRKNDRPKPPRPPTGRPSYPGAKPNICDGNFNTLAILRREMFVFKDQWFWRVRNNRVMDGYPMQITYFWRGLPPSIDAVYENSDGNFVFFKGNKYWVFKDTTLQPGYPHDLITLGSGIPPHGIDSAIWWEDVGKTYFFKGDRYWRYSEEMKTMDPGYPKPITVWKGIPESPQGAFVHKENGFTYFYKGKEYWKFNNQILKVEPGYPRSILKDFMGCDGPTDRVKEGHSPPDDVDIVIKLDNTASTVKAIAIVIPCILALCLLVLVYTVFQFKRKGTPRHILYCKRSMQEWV

MMP24 = MMP24 (Homo sapiens, UniProt Q9Y5R2); experiment: Binding to related MMP family member MMP24
MMP24, sequence (Q9Y5R2 156-645, species assumed): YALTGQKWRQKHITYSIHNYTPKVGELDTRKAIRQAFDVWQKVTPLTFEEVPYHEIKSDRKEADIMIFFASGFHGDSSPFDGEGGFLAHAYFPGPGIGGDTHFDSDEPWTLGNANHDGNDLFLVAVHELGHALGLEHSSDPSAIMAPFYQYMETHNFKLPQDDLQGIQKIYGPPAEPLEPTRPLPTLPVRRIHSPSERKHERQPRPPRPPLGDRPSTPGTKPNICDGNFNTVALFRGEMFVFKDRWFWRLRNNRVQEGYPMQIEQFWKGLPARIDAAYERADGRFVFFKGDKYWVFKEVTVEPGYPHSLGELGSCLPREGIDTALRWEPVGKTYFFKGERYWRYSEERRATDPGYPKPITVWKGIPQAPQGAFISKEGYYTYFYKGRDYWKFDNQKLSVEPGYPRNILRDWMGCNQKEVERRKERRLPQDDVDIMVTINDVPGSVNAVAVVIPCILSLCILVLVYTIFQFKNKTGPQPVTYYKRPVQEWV

MMP1 [1] = molecular target: T1, MMP1 (Homo sapiens, UniProt P03956); experiment: Binding to related MMP family member MMP1
T1 sequence (P03956 100-469): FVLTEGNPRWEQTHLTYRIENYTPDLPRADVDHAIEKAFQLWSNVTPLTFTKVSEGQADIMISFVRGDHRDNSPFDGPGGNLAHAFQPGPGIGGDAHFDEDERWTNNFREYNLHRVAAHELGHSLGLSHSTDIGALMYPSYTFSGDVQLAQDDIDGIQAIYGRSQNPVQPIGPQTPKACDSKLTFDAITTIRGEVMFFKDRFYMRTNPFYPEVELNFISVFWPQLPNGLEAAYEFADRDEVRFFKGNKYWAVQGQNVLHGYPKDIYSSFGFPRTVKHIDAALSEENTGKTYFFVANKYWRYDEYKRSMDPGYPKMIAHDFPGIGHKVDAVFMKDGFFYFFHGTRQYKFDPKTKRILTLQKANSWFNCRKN

Pro-MMP1 = molecular target: T2, Pro-MMP1 (Homo sapiens, UniProt P03956); experiment: Binding to related MMP family member Pro-MMP1
T2 sequence (P03956 20-469 limits assumed): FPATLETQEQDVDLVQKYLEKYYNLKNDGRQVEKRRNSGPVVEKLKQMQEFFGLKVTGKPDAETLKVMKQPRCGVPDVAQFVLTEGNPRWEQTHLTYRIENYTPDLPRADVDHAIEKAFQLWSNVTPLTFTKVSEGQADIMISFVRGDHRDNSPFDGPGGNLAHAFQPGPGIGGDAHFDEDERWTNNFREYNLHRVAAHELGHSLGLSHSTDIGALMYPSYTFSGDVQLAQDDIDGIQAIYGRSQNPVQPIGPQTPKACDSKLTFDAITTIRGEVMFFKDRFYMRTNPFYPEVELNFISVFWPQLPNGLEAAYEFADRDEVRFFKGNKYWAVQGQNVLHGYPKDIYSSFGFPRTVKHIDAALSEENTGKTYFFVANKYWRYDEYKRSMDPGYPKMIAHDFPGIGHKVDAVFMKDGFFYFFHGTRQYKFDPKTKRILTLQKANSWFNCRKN

MMP2 [2] = molecular target: T3, MMP2 (Homo sapiens, UniProt P08253); experiment: Binding to related MMP family member MMP2
T3 sequence (P08253 110-660): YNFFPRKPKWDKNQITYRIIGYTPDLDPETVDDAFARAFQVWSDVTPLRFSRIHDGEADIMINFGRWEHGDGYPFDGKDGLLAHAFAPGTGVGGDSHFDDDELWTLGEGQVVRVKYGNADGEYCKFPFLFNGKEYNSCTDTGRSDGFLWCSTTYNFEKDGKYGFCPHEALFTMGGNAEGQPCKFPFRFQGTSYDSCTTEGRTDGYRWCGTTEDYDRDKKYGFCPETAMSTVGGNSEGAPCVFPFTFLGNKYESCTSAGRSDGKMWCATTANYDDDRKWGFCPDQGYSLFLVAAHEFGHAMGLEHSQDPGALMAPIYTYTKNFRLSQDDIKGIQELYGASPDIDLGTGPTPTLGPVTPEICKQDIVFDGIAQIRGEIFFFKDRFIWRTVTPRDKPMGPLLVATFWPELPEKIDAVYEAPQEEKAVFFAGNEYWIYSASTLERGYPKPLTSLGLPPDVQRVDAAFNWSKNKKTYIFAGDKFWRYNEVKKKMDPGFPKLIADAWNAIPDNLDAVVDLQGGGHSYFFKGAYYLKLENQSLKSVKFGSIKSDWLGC

MT1 = MT1 (Homo sapiens, UniProt P50281); experiment: Effect on catalytic activity of MT1 in vitro; format: biochemical
MMP1 [3] = molecular target: T1, MMP1; experiment: Effect on MMP1 catalytic activity; format: biochemical; settings: in vitro
MMP2 [4] = molecular target: T3, MMP2; experiment: Effect on MMP2 catalytic activity; format: biochemical; settings: in vitro
MMP9 = MMP9 (Homo sapiens, UniProt P14780); experiment: Effect on MMP9 catalytic activity; format: biochemical; settings: in vitro
MMP9, sequence (P14780 94-707, species assumed): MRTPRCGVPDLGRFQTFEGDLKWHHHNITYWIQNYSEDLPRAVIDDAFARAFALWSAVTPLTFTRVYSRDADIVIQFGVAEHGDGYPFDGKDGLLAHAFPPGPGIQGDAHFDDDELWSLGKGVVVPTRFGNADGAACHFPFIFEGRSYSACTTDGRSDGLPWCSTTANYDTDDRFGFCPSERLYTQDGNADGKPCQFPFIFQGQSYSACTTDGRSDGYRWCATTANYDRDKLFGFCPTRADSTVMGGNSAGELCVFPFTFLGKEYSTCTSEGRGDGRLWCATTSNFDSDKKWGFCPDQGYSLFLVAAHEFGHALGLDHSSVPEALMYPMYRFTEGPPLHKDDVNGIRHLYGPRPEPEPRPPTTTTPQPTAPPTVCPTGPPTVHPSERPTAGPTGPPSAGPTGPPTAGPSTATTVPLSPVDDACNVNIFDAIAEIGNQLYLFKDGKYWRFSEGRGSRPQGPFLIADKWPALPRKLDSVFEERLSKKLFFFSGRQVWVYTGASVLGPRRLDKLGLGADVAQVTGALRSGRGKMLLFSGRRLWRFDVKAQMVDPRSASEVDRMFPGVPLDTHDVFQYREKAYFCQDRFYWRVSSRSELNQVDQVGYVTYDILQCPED

[5] = tested on: cell migration or invasion; experiment: Effect on cell migration or invasion; format: cell-based; settings: in vitro

C[C@H](NC(=O)CN(C)C(=O)CN(C)C(=O)CN(C)C(=O)CN(C)C(=O)CN(C)C(=O)CN(C)C(=O)CN(C)C(=O)CN(C)C(=O)CN(C)C(=O)CN(C)C(=O)CCN)C(=O)N[C@H]1CSCc2cc3cc(c2)CSC[C@H](NC(=O)[C@@H](C)NC(=O)[C@H](Cc2cccc4ccccc24)NC(=O)[C@H](CCC(=O)O)NC(=O)[C@H](CC(N)=O)NC(=O)[C@@H](C)NC1=O)C(=O)N[C@@H](CCC(=O)O)C(=O)N[C@@H](CC(=O)O)C(=O)N[C@@H](Cc1ccccc1)C(=O)N[C@@H](Cc1ccc(O)cc1)C(=O)N[C@@H](CC(=O)O)C(=O)N[C@@H](C(C)(C)C)C(=O)N[C@H](C(N)=O)CSC3 [N241] (H-[βAla][Sar][Sar][Sar][Sar][Sar][Sar][Sar][Sar][Sar][Sar]AC[dA]NE[1Nal][dA]CEDFYD[Tle]C-NH2; linker 13-19-26 via TBMB; N-terminus and C-terminus assumed)
binding to the catalytic domain (catalytic domain (MT1)): no binding
binding toward MMP15 (MMP15): no binding
binding toward MMP16 (MMP16): no binding
binding toward MMP24 (MMP24): no binding
binding toward MMP1 (MMP1 [1]): no binding
binding toward Pro-MMP1 (Pro-MMP1): no binding
binding toward MMP2 (MMP2 [2]): no binding
impact on the catalytic activity of the protease (MT1) (MT1): no direct impact
impact on MMP1 catalytic activity (MMP1 [3]): no direct impact
impact on MMP2 catalytic activity (MMP2 [4]): no direct impact
impact on MMP9 catalytic activity (MMP9): no direct impact
impact on cell migration or invasion [5]: no direct impact
